Literature values, collected in US20260048030A1, “REPARIXIN LIQUID SUSPENSIONS” (Dompe' Farmaceutici SPA, priority 2022, published 2026).

Tested on: hospitalized patients with severe COVID-19 pneumonia
Settings: phase 2

## CC(C)Cc1ccc([C@@H](C)C(=O)NS(C)(=O)=O)cc1 [Reparixin, R-(−)-2-(4-isobutylphenyl)propionyl methansulfonamide]
  Clinical outcomes compared with the standard of care: improved clinical outcomes
